Experimental data taken from PMC4113814, “Bioactive Cembrane Derivatives from the Indian Ocean Soft Coral, Sinularia kavarattiensis” (Marine Drugs, 2014).
In brackets after ≈: the same amount, converted by molar mass.

Columns and labels:
IL-8 = IL-8 release in supernatants of LPS-treated primary microglial cells (ELISA); assay type: cell-based, Wistar rats; conditions: 72 h; for IL-8 release: LPS-treated
Protocol: (§1) Primary microglial cell cultures were prepared from brains of newborn Wistar rats. Ethics approval for the experiments was granted by the EBIOTEC Review Board (Valter Lombardi, Iván Carrera and Lucía Fernández-Novoa; Project Identification Code: Sinularia Project October 2013; approved 30 October 2013). The neocortex of one-day-old postnatal rats was aseptically dissected out, and the meninges and blood vessels were carefully removed. Following cutting in a medium containing 20% horse serum, the suspension was filtered through a […] and transferred as a single cell suspension to culture dishes, using 5.0 mL of medium per dish. The cultures were incubated at 37 °C in an atmosphere containing 5% CO2. The culture medium consisted of Minimum Essential Medium Eagle, supplemented with L-glutamine, amino acids, vitamins, penicillin, gentamicin, sodium bicarbonate and 20% heat-inactivated horse serum. The medium was changed twice a week. After 1 week, the concentration of horse serum was reduced to 10%. After sixteen days in culture, cells were treated with 1 μg/mL of lipopolysaccharide (LPS). […] Positive controls were treated only with LPS, while negative controls were treated with complete medium. After 72 h of incubation, cells were counted, and 2.5 mL of the supernatants were collected from each well and frozen at −40 °C for cytokine analyses. All experiments were carried out twice.
(§2) The supernatants obtained from cell cultures were analyzed for TNF-α, IL-1β, IL-4, IL-6, IL-8, IL-10 and IL-18 using commercially available ELISA kits following the manufacturers’ instructions. All samples were assayed in duplicate, and equivocal results were repeated. The cytokine concentration was calculated from a standard curve of the corresponding recombinant cytokine.
(§3) The cytotoxicity of the compounds was measured by the colorimetric methyl thiazol tetrazolium (MTT) assay and scored as a percentage of the absorbance reduction of treated cultures versus untreated control cultures. Primary microglial cell cultures were seeded into 96-well microplates at 10^4 cells per well and allowed to grow for 24 h. […] The compounds were serially diluted in complete culture medium with two-fold dilutions (100, 50, 25, 12.5, 6.25, 3.12 and 1.56 μg/mL for in vitro cytotoxicity; 12.5, 6.25, 3.12, 1.56, 0.78 and 0.39 μg/mL for cytokine release). Different concentrations of the compounds were added to each well, and Tamoxifen was used as a positive control, with concentrations ranging from 50 to 1.56 μg/mL. Plates were incubated at 37 °C for 72 h under 5% CO2 atmosphere. Then, the 50 μL of MTT-PBS solution in culture medium were added to each well. The plates were further incubated for 4 h under the same conditions. The medium was then removed and replaced with 200 μL of DMSO to solubilize the MTT formazan product. The solutions were shaken for 20 min, and the absorbance was measured at 570 nm. […] Each value represents the mean of triplicate determinations. The IC50 values were calculated from the compound concentration-response curves.

TNF-α = TNF-α release in supernatants of LPS-treated primary microglial cells (ELISA); assay type: cell-based, Wistar rats; conditions: 72 h; for TNF-α release: LPS-treated
Protocol: as §1, §2, §3

IL-4 = IL-4 release in supernatants of LPS-treated primary microglial cells (ELISA); assay type: cell-based, Wistar rats; conditions: 72 h; for IL-4 release: LPS-treated
Protocol: as §1, §2
as §3, with “The compounds were serially diluted in complete culture medium with two-fold dilutions (100, 50, 25, 12.5, 6.25, 3.12 and 1.56 μg/mL for in vitro cytotoxicity; 12.5, 6.25, 3.12, 1.56, 0.78 and 0.39 μg/mL for cytokine release).” left out

IL-18 = IL-18 release in supernatants of LPS-treated primary microglial cells (ELISA); assay type: cell-based, Wistar rats; conditions: 72 h; for IL-18 release: LPS-treated
Protocol: as §1, §2
as §3, with “The compounds were serially diluted in complete culture medium with two-fold dilutions (100, 50, 25, 12.5, 6.25, 3.12 and 1.56 μg/mL for in vitro cytotoxicity; 12.5, 6.25, 3.12, 1.56, 0.78 and 0.39 μg/mL for cytokine release).” left out

IL-10 = IL-10 release in supernatants of LPS-treated primary microglial cells (ELISA); assay type: cell-based, Wistar rats; conditions: 72 h; for IL-10 release: LPS-treated
Protocol: as §1, §2, §3

IL-1β = IL-1β release in supernatants of LPS-treated primary microglial cells (ELISA); assay type: cell-based, Wistar rats; conditions: 72 h; for IL-1β release: LPS-treated
Protocol: as §1, §2, §3

[1] = MTT cytotoxicity assay on primary microglial cell cultures; assay type: cell-based, Wistar rats; conditions: Wistar, rat, mean of triplicate
Protocol: Primary microglial cell cultures were prepared from brains of newborn Wistar rats. Ethics approval for the experiments was granted by the EBIOTEC Review Board (Valter Lombardi, Iván Carrera and Lucía Fernández-Novoa; Project Identification Code: Sinularia Project October 2013; approved 30 October 2013). The neocortex of one-day-old postnatal rats was aseptically dissected out, and the meninges and blood vessels were carefully removed. Following cutting in a medium containing 20% horse serum, the suspension was filtered through a […] and transferred as a single cell suspension to culture dishes, using 5.0 mL of medium per dish. The cultures were incubated at 37 °C in an atmosphere containing 5% CO2. The culture medium consisted of Minimum Essential Medium Eagle, supplemented with L-glutamine, amino acids, vitamins, penicillin, gentamicin, sodium bicarbonate and 20% heat-inactivated horse serum. The medium was changed twice a week. After 1 week, the concentration of horse serum was reduced to 10%. After sixteen days in culture, cells were treated with 1 μg/mL of lipopolysaccharide (LPS). After six hours, different concentrations (1.0 μg/mL, 2.5 μg/mL and 5.0 μg/mL) of Compounds 1–4 and 6 were added to each well, and plates were incubated for 72 h at 37 °C in an atmosphere containing 5% CO2. Positive controls were treated only with LPS, while negative controls were treated with complete medium. After 72 h of incubation, cells were counted, and 2.5 mL of the supernatants were collected from each well and frozen at −40 °C for cytokine analyses. All experiments were carried out twice.
The cytotoxicity of the compounds was measured by the colorimetric methyl thiazol tetrazolium (MTT) assay and scored as a percentage of the absorbance reduction of treated cultures versus untreated control cultures. Primary microglial cell cultures were seeded into 96-well microplates at 10^4 cells per well and allowed to grow for 24 h. The initial concentration of Compounds 1–4 and 6 was 100 μg/mL in DMSO. The compounds were serially diluted in complete culture medium with two-fold dilutions (100, 50, 25, 12.5, 6.25, 3.12 and 1.56 μg/mL for in vitro cytotoxicity; 12.5, 6.25, 3.12, 1.56, 0.78 and 0.39 μg/mL for cytokine release). Different concentrations of the compounds were added to each well, and Tamoxifen was used as a positive control, with concentrations ranging from 50 to 1.56 μg/mL. Plates were incubated at 37 °C for 72 h under 5% CO2 atmosphere. Then, the 50 μL of MTT-PBS solution in culture medium were added to each well. The plates were further incubated for 4 h under the same conditions. The medium was then removed and replaced with 200 μL of DMSO to solubilize the MTT formazan product. The solutions were shaken for 20 min, and the absorbance was measured at 570 nm. […] Each value represents the mean of triplicate determinations. The IC50 values were calculated from the compound concentration-response curves.

IL-6 = IL-6 release in supernatants of LPS-treated primary microglial cells (ELISA); assay type: cell-based, Wistar rats; conditions: 72 h; for IL-6 release: LPS-treated
Protocol: as §1, §2, §3

CHIKV replicon [2] = experiment: CHIKV replicon assay, Cell-IQ live cell imaging, EGFP fluorescence intensity; conditions: 48 h; for decrease in EGFP marker fluorescence intensity: 50 and 100 μM
BHK-CHIKV-NCT cells [3] = experiment: Cell-IQ live cell imaging, cytotoxicity by cell classification (viable cells); conditions: 48 h, control compounds
CHIKV replicon [4] = experiment: microbe, parasite or virus in culture; conditions: Chikungunya virus; for inhibition at 100 µM: 48 h, read-out: inhibition of the CHIKV replicon (Rluc marker levels)
BHK-CHIKV-NCT cells [5] = experiment: Cytotoxicity assay by ATP quantitation (CellTiter GLO)

Work on `C=C(C)[C@@H]1C/C=C(\C(=O)OC)CC(=O)C[C@]2(C)CC(=O)[C@H](CC(=O)C1)O2` [Compound 4] yielded an IL-8 release (IL-8; C2: 2.5 μg/mL) of 247 ± 8 pg/mL, an IL-8 release (IL-8; C3: 5.0 μg/mL) of 247 ± 8 pg/mL and an IC50 (IL-8; Rattus norvegicus, read-out: IL-8 IC50) of over 12.5 µg/mL. It also gave a TNF-α release (TNF-α; C1: 1.0 μg/mL) of 33.2 ± 2.8 pg/mL, a TNF-α release (TNF-α; C2: 2.5 μg/mL) of 29.8 ± 2.5 pg/mL and a TNF-α release (TNF-α; C3: 5.0 μg/mL) of 32.5 ± 3.7 pg/mL. The IC50 (TNF-α; Rattus norvegicus, read-out: TNF-α IC50) was over 12.5 µg/mL, the IL-4 release (IL-4; C1: 1.0 μg/mL) was 2.2 ± 0.2 pg/mL and the IL-4 release (IL-4; C2: 2.5 μg/mL) was 2.3 ± 0.5 pg/mL. For the same compound, the IL-4 release (IL-4; C3: 5.0 μg/mL) was 1.8 ± 0.2 pg/mL, the IC50 (IL-4; Rattus norvegicus, read-out: IL-4 IC50) was over 12.5 µg/mL and the IL-18 release (IL-18; C2: 2.5 μg/mL) was 312 ± 8.2 pg/mL. It also gave an IL-18 release (IL-18; C3: 5.0 μg/mL) of 312 ± 8.2 pg/mL, an IC50 (IL-18; Rattus norvegicus, read-out: IL-18 IC50) of over 12.5 µg/mL and an IL-10 release (IL-10; C1: 1.0 μg/mL) of 8.4 ± 2.6 pg/mL. The IL-10 release (IL-10; C2: 2.5 μg/mL) was 7.9 ± 2.5 pg/mL, the IL-10 release (IL-10; C3: 5.0 μg/mL) was 7.8 ± 3.2 pg/mL and the IC50 (IL-10; Rattus norvegicus, read-out: IL-10 IC50) was over 12.5 µg/mL. For the same compound, the IL-1β release (IL-1β; C1: 1.0 μg/mL) was 1.01 ± 0.04 pg/mL, the IL-1β release (IL-1β; C2: 2.5 μg/mL) was 1.02 ± 0.04 pg/mL and the IL-1β release (IL-1β; C3: 5.0 μg/mL) was 1.01 ± 0.02 pg/mL. The IC50 (IL-1β; Rattus norvegicus, read-out: IL-1β IC50) was over 12.5 µg/mL, the IC50 at 72 h [1] was over 100 µg/mL and the IL-6 release (IL-6; C1: 1.0 μg/mL) was 12.1 ± 1.3 pg/mL. It also gave an IL-6 release (IL-6; C2: 2.5 μg/mL) of 14.1 ± 1.1 pg/mL, an IL-6 release (IL-6; C3: 5.0 μg/mL) of 12.1 ± 1.3 pg/mL and an IC50 (IL-6; Rattus norvegicus, read-out: IL-6 IC50) of over 12.5 µg/mL.

In the case of `CC/C(=C(\c1ccccc1)c1ccc(OCCN(C)C)cc1)c1ccccc1` [Tamoxifen, reference compound], the IC50 at 72 h [1] is reported as 3.6 µg/mL (≈ 9.69 µM).

With `O=c1cnn([C@@H]2O[C@H](CO)[C@@H](O)[C@H]2O)c(=O)[nH]1` [Compound 6-azauridine, 6-azauridine, reference compound] the “effect of control compound on fluorescence intensity” value (CHIKV replicon [2]; control compounds) was “decreases the fluorescence intensity”, the “effect of control compound on number of viable cells / cell morphology” value (BHK-CHIKV-NCT cells [3]) was “without affecting cell morphology” and the IC50 (CHIKV replicon [4]; read-out: IC50, inhibition of replicon (Rluc detection)) was 2000 nM. For the same compound, the inhibition at 10 µM (CHIKV replicon [4]; read-out: average inhibition (Rluc)) was 69%.

For `C=C1/C=C/[C@H](C(C)C)CCC(=C)[C@H](O)CC1` [Compound 5, ent-germacra-4(15),5E,10(14)-trien-1β-ol], the “decrease in EGFP marker fluorescence intensity” value (CHIKV replicon [2]) was “only moderate decreases” and the inhibition at 100 µM (CHIKV replicon [4]) was 0.5 to 63%.

In the case of polymyxin B [reference compound], the average toxicity (BHK-CHIKV-NCT cells [5]; 10,000 IU/mL) is reported as 93%, the “ED50 for the cytotoxic activity” value (BHK-CHIKV-NCT cells [5]; positive control) is reported as 5900 IU/mL and the “effect of control compound on number of viable cells / cell morphology” value (BHK-CHIKV-NCT cells [3]) is reported as “radically decreases”.

With `C=C(C)C1CC(=O)C2C3C(=O)CC(C=C3C(C)=O)C(C(=O)O)C2C1` (stereo not drawn) [Compound 7, kavaranolide] the “decrease in EGFP marker fluorescence intensity” value (CHIKV replicon [2]) was “only moderate decreases” and the inhibition at 100 µM (CHIKV replicon [4]) was 0.5 to 63%.
